The target of experiment [1] is T1, TrCla4 (Trichophyton rubrum, UniProt F2SMN8).
T1 construct: gene TERG_04196; 3xHA-TrCla4 immunoprecipitated from T. rubrum; with TrRac
T1 sequence (F2SMN8 1-888): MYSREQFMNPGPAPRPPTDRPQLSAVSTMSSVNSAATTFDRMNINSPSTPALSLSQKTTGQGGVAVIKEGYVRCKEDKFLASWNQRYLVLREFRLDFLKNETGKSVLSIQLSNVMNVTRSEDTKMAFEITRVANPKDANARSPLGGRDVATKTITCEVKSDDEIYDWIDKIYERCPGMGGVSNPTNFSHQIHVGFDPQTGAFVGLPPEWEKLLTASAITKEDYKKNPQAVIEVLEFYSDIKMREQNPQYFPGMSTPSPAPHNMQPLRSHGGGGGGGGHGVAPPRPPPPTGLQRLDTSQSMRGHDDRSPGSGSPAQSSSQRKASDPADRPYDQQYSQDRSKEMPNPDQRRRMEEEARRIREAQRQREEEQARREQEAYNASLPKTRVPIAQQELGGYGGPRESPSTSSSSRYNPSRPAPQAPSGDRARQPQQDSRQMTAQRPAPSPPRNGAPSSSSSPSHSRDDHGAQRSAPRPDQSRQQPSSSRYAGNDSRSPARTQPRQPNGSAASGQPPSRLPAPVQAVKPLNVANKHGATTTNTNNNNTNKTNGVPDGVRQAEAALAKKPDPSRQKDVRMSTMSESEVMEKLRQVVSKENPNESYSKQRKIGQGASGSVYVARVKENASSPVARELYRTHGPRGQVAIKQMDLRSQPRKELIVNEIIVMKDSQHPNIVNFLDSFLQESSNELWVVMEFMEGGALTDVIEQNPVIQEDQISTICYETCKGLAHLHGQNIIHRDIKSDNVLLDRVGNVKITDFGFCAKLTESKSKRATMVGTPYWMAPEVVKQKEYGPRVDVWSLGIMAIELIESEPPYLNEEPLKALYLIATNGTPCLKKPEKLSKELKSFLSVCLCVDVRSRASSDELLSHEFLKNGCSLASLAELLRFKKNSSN
Put plainly: Kinase-Glo ATP consumption assay of immunoprecipitated 3xHA-TrCla4 with recombinant TrRac. The format is biochemical.

For experiment [2], the target named is T2, TrCla4 (Trichophyton rubrum, UniProt F2SMN8).
T2 construct: gene TERG_04196; His-, Tf- and Flag-tagged TrCla4 (E. coli BL21 lysate, Ni NTA pull-down); also immunoprecipitated 3xHA-TrCla4
Put plainly: pull-down of purified GTPγS-TrRac by Tf-TrCla4 with IPA-3; also Kinase-Glo assay of immunoprecipitated 3xHA-TrCla4. The format is biochemical. (Kinase-Glo reads ATP consumption through a luciferase reaction.)

As usually defined, the IC50 is the concentration at which inhibition is half-maximal. Read a low IC50 as greater potency in that assay.

Take `CCn1c(=O)c(-c2ccc(Cl)cc2Cl)cc2cnc(Nc3ccc(N4CCNCC4)c(F)c3)nc21` [FRAX486]: the “Kinase-Glo ATP consumption assay of immunoprecipitated 3xHA-TrCla4 with recombin” value on TrCla4 [1] was “Both FRAX486 and IPA-3 inhibited the TrRac-dependent ATPase activity of 3xHA-TrCla4 (Fig. 5D)”. For the molecule `Oc1ccc2ccccc2c1SSc1c(O)ccc2ccccc12` [IPA-3], the IC50 at TrCla4 [2] amounted to 2300 nM.
